# From article PMC7876453, “Targeting Indoleamine 2,3-Dioxygenase in Cancer Models Using the Novel Small Molecule Inhibitor NTRC 3883-0” (Frontiers in Immunology, 2021)
# Tests used:
# SW48 (hTDO) = molecular target: T1, SW48 (hTDO) (Homo sapiens, UniProt P48775); assay: cell-based assay, Trp-catabolizing activity in SW48 cells
# T1 construct: host or cells: SW48 cells
# [1] = in vivo pharmacokinetics, dog; design: species or system Beagle dogs; conditions: Beagle, plasma; for clearance / Vd: intravenous; for Vd: read-out: Vss
# Experimental: (§1) Pharmacokinetic properties of NTRC 3883-0 were determined in plasma following single oral (p.o.) and i.v. administration to male CD-1 mice (n = 6 per treatment group with three mice sampled per time point), Wistar rats (n = 3), cynomolgus monkey (n = 1) and Beagle dogs (n = 3). Formulations were prepared in DMSO, Kolliphor® EL, 5% D-mannitol in Elix water at a volume ratio of 1:1:8 for i.v. administration, and in 0.5% gelatin, 5% D-mannitol in Elix water for p.o. administration. Plasma samples were collected at eight to eleven time points up to 24 h after administration. Pharmacokinetic properties and required dosing in humans were predicted by allometric scaling by Karin Jorga Life Science Consulting (Basel, Switzerland) ( Figure S2 and Table S2 ).
# HEK-hTDO = HEK-hTDO (Homo sapiens, UniProt P48775); assay: cell-based assay, Trp-catabolizing activity in HEK-hTDO cells
# Chain of HEK-hTDO (P48775 whole entry): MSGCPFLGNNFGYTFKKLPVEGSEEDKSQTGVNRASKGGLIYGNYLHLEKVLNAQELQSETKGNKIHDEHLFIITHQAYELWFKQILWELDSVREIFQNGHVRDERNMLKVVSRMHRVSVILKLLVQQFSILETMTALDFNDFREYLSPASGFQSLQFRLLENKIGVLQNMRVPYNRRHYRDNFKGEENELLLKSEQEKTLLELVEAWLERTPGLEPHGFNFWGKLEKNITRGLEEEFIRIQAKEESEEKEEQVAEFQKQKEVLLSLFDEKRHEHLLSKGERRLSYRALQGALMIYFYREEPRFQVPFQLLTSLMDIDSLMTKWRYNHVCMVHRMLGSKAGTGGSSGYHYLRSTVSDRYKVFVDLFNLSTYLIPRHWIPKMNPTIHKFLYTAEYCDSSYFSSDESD
# GL-261-mTDO = GL-261-mTDO (Mus musculus, UniProt P48776); assay: cell-based assay, Trp-catabolizing activity in GL-261-mTDO cells; conditions: read-out: inhibition GL-261-mTDO
# Chain of GL-261-mTDO (P48776 whole entry): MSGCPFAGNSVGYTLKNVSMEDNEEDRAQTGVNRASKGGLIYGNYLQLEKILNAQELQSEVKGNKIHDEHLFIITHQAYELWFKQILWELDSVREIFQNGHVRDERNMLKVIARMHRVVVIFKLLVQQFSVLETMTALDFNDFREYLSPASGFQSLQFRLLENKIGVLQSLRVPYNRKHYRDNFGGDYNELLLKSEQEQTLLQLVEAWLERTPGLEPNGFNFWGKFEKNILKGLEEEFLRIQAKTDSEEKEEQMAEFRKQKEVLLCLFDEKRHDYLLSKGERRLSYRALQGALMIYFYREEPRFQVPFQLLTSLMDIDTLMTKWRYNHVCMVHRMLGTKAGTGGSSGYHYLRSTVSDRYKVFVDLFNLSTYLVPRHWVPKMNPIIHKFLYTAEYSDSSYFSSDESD
# [2] = test system: CT26 cells implanted subcutaneously into female BALB/c mice; assay: CT26 mouse model, second study (Charles River); format: in vivo
# Experimental: For the second study, performed at Charles River Laboratories, 3 × 10^5 CT26 cells were implanted subcutaneously into female BALB/c mice on day 0. […] Tumor growth was monitored using caliper measurement 3 times weekly. A tumor volume of 2000 mm^3 was used as the endpoint of the experiment for the individual animals. Tumors were sampled 2 h post last dose.
# Tissues were homogenized in PBS at a ratio of 1 mg per 10 μl using micro pellet pestles mounted on a Micro-Tube Homogenizer System (Thomas Scientific). After centrifugation, proteins were removed from the homogenized tissue supernatants and plasma samples by precipitation with methanol. The concentrations of inhibitor, Trp and Kyn were determined by LC-MS/MS.
# [3] = in vivo pharmacokinetics, rat; design: species or system Wistar rats; conditions: Wistar, plasma; for clearance / Vd: intravenous; for Vd: read-out: Vss
# Experimental: as §1
# HEK-hIDO1 = HEK-hIDO1 (Homo sapiens, UniProt P14902); assay: cell-based assay, Trp-catabolizing activity in HEK-hIDO1 cells
# Chain of HEK-hIDO1 (P14902 whole entry): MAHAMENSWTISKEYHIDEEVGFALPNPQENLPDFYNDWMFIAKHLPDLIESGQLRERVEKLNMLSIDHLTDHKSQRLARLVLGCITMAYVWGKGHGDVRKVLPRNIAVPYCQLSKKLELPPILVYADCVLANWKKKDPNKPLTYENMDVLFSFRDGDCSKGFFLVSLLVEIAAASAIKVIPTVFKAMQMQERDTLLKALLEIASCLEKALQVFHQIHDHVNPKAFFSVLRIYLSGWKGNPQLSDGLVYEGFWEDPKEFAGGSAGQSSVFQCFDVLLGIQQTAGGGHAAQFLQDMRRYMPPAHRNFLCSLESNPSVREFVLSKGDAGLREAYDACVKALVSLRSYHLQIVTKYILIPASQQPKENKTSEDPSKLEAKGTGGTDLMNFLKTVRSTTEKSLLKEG
# [4] = test system: cell lines used in this study; assay: cell viability assays (ATPlite 1Step); conditions: in parallel with the cell-based assays
# [5] = in vivo pharmacokinetics, monkey; conditions: cynomolgus monkey, plasma; for clearance / Vd: intravenous; for Vd: read-out: Vss
# Experimental: as §1
# mTDO = molecular target: T2, mTDO (Mus musculus, UniProt P48776); assay: mouse TDO biochemical assay (NFK GreenScreen); conditions: biochemical; @ 31,600 nM
# T2 construct: hexahistidine (C); made in house; host or cells: Escherichia coli
# T2 sequence (P48776 whole entry): as the sequence (P48776 whole entry) above
# Experimental: Full-length recombinant human and mouse IDO1 were expressed in Escherichia coli with a hexahistidine tag at the N-terminus, and purified by affinity chromatography to > 95% purity, as described ([8]). Human and mouse TDO containing a C-terminal hexahistidine tag were analogously expressed and purified to > 95% purity ([8]). The inhibitory activity of compounds was determined with the NFK GreenScreen assay technology under the conditions as described ([8]), except for the reaction buffer for IDO1, which was replaced by 50 mM NaH2PO4, pH 7.0, supplemented with 0.01% Tween-20 and 1% glycerol. Inhibition of the CYP3A4 and CYP2D6 enzymes was determined with the P450-Glo™ Screening System with Luciferin-IPA (Promega, #V9920 and V9890). For determination of IC50 values, the effect of inhibitors was determined in 10-point duplicate dose-response curves. Graphs were fitted to a four-parameter logistics equation in XLfit (ID Business Solutions, Ltd., Guildford, UK) from which IC50 values were calculated.
# human IDO1 = molecular target: T3, human IDO1 (Homo sapiens, UniProt P14902); assay: human IDO1 biochemical assay (NFK GreenScreen); conditions: human IDO1 biochemical assay
# T3 construct: Full-length recombinant human and mouse IDO1 were expressed in Escherichia coli with a hexahistidine tag at the N-terminus; hexahistidine (N); made in house; host or cells: Escherichia coli
# T3 sequence (P14902 whole entry): as the sequence (P14902 whole entry) above
# [6] = plasma protein binding, dog; format: in vitro ADME
# Experimental: (§2) Supplement DataSheet_1.docx, table 2: Table S2. Pharmacokinetic parameters of NTRC 3883-0 observed in mouse, rat, monkey and dog, and predicted for humans using allometric scaling. Data in bold are measured, while data in italics are calculated or predicted (for humans). The clearance (Cl) and volume of distribution at steady state (Vss | column: Dog
# [7] = plasma protein binding, mouse; format: in vitro ADME
# Experimental: as §2, with “Mouse” for “Dog”
# mIDO1 = molecular target: T4, mIDO1 (Mus musculus, UniProt P28776); assay: mouse IDO1 biochemical assay (NFK GreenScreen)
# T4 construct: Full-length recombinant human and mouse IDO1 were expressed in Escherichia coli with a hexahistidine tag at the N-terminus; hexahistidine (N); made in house; host or cells: Escherichia coli
# T4 sequence (P28776 whole entry): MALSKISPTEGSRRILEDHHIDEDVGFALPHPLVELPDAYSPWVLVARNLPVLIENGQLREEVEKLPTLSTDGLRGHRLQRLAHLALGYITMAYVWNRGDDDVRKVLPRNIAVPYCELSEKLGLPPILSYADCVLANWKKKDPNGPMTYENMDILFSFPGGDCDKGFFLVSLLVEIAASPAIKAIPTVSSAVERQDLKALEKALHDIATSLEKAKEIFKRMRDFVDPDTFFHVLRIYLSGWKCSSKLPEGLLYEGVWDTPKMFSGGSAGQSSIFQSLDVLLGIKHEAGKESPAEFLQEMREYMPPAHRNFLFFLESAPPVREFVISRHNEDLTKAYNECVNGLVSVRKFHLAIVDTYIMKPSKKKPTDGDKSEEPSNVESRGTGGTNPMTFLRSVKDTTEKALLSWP
# [8] = human pharmacokinetics predicted by allometric scaling; conditions: predicted parameters, assuming 100% bioavailability
# Experimental: as §1
# Table S2. Pharmacokinetic parameters of NTRC 3883-0 observed in mouse, rat, monkey and dog, and predicted for humans using allometric scaling. Data in bold are measured, while data in italics are calculated or predicted (for humans). The clearance (Cl) and volume of distribution at steady state (Vss) in humans are predicted based on extrapolation of the parameters in the four species as shown in Supplementary Figure S2. […] The half-life (t1/2) in humans was predicted as Vss/Cl. […] ND = not determined.
# [9] = po, p.o. versus i.v., read-out: Bioavailability (F)
# T1 sequence (P48775 whole entry): as the sequence (P48775 whole entry) above
smiles,measurement,setting,value
O=C1CN(C(=O)c2c(F)cccc2F)[C@H](c2cccc(Br)c2)N1O [NTRC 3883-0],inhibition at 31.6 µM,"SW48 (hTDO); SW48, @ 31,600 nM",< 20%
same,effect on Trp-catabolizing activity in SW48 (in words),SW48 (hTDO); constitutively expresses TDO,no effect
same,half-life,[1],2.8 h
same,clearance,[1],28.6 mL/min/kg
same,clearance,[1]; body weight 10 kg,286 mL/min
same,Vd,[1]; body weight 10 kg,13.6 L
same,Vd,[1],1.36 L/kg
same,bioavailability,[1]; [9],32%
same,effect on Trp-catabolizing activity in HEK-hTDO cells (in words),HEK-hTDO,no effect
same,inhibition at 31.6 µM,HEK-hTDO; read-out: inhibition HEK-hTDO,< 20%
same,inhibition at 31.6 µM,GL-261-mTDO,< 20%
same,tumor growth,[2]; 100 mg/kg p.o. b.i.d. from day 8,no inhibition of tumor growth
same,Kyn levels in the tumor,"[2]; LC-MS/MS, 2 h post last dose, 100 mg/kg p.o. b.i.d.",considerable reduction of Kyn levels
same,half-life,[3],3.3 h
same,clearance,[3],19.1 mL/min/kg
same,clearance,[3]; body weight 0.29 kg,5.52 mL/min
same,Vd,[3]; body weight 0.29 kg,0.417 L
same,Vd,[3],1.43 L/kg
same,bioavailability,[3]; [9],91%
same,IC50,HEK-hIDO1,0.119 µM
same,cytotoxicity,[4],not cytotoxic
same,half-life,[5],2.4 h
same,clearance,[5],37 mL/min/kg
same,clearance,"[5]; monkey, body weight 3.0 kg",111 mL/min
same,Vd,"[5]; monkey, body weight 3.0 kg",6.74 L
same,Vd,[5],2.25 L/kg
same,bioavailability,"[5]; po, monkey, p.o. versus i.v., read-out: Bioavailability (F)",49%
same,inhibition at 31.6 µM,mTDO,< 20%
same,IC50,human IDO1,0.123 µM
same,fraction unbound,[6],0.21
same,fraction unbound,[7],0.46
same,IC50,mIDO1,0.093 µM
same,minimum dose required to reach a target concentration of 1 μM on average during the dosing interval,[8],1725 mg per day
